US9485988B2, “Turfgrass fungicide formulation with pigment” (Suncor Energy Inc., priority 2008, dated 2016)

How the values were obtained:
Type in all cases: in vivo
[1] = tested on: fall armyworms (Spodoptera frugiperda); experiment: Example 29: survival of fall armyworm larvae on treated grass clippings; conditions: 5 larvae/container, 4 days at 25° C.
Method: The efficacy of an embodiment of the 2-pack formulation against different larval stages of fall armyworms (Spodoptera frugiperda) was determined under laboratory conditions. Embodiments of the invention were compared to a conventional pesticide Cyfluthrin.
• 1) Larvae were obtained from Benzon Research Inc. • 2) 5 larvae/container and 3 containers=1 replication • 3) Treatments=1) Control • 2) 2-pack formulation at 5% dilution • 3) Cyfluthrin (insecticide), Al=0.75%, 3 fl oz/gal H2O (22 mL/L) • 4) Container=760 ml plastic bowl with lid containing moist filter paper on bottom and grass clippings • 5) St. Augustinegrass clippings dipped into respective fungicide treatment, drained to dry and put into container • 6) Hold 4 days at 25° C. and measure survival • 7) 7 replications of small larvae (2-10 mm) tested • 8) 6 replications of medium larvae (11-20 mm) tested • 9) 6 replications of large larvae (21-30 mm) tested • 10) Statistical analysis=Least Significant Difference (LSD) test Results: […]

tropical sod webworms = experiment: Example 29: survival of tropical sod webworm larvae
Method: • 1) Larvae were obtained from Benzon Research Inc. • 2) 5 larvae/container and 3 containers=1 replication • 3) Treatments=1) Control • 2) 2-pack formulation at 5% dilution • 3) Cyfluthrin (insecticide), Al=0.75%, 3 fl oz/gal H2O (22 mL/L) • 4) Container=760 ml plastic bowl with lid containing moist filter paper on bottom and grass clippings • 5) St. Augustinegrass clippings dipped into respective fungicide treatment, drained to dry and put into container • 6) Hold 4 days at 25° C. and measure survival • 7) 7 replications of small larvae (2-10 mm) tested • 8) 6 replications of medium larvae (11-20 mm) tested • 9) 6 replications of large larvae (21-30 mm) tested • 10) Statistical analysis=Least Significant Difference (LSD) test Results:
Similar testing was conducted to determine the efficacy of embodiments of the 2-pack formulation to kill all sizes larvae (small, medium and large) of tropical sod webworms.

[2] = Synergy of the formulations when mixed with conventional chemical fungicides; conditions: contact fungicide

| Compound | Mean survival, Large larvae ([1]; large larvae (21-30 mm)) [B] | Mean survival, Medium larvae ([1]; medium larvae (11-20 mm)) [B] | Mean survival, Small larvae ([1]; small larvae (2-10 mm)) [B] | Mean survival, Large larvae (tropical sod webworms; Large sod webworm larvae) [B] | Mean survival, Medium larvae (tropical sod webworms; Medium sod webworm larvae) [B] | Mean survival, Small larvae (tropical sod webworms; Small sod webworm larvae) [B] | synergistic effect when mixed with embodiments of the invention [2] |
| --- | --- | --- | --- | --- | --- | --- | --- |
| CC1(C)C(C=C(Cl)Cl)C1C(=O)OC(C#N)c1ccc(F)c(Oc2ccccc2)c1 (stereo not shown) [Cyfluthrin] | 0 | 0 | 0 | 0.3 | 0 | 0 |  |
| N#Cc1c(Cl)c(Cl)c(Cl)c(C#N)c1Cl [chlorothalonil] |  |  |  |  |  |  | synergistic effect was not observed |
